Measured values as given in patent US20080200544A1, “Oil agent and lubricant agent, moisturizer and external preparation composition containing the same” (priority 2007, published 2008).
Structures can show the parent of a compound that is named as a salt.

What was measured:
[1] = Viscosity, Brookfield viscometer DV-II+ (Spindle No. 2, 12 rpm, 25° C.); format: physicochemical; conditions: for Viscosity: 25° C.; for Feeling of use: class assigned from viscosity at 25° C.
Description: In this specification, “viscosity” refers to a value of viscosity measured using a Brookfield viscometer DV-II+ (Spindle No. 2, 12 rpm, 25° C.).
In these examples, viscosity was measured using a Brookfield viscometer DV-II+ (Spindle No. 2, 12 rpm, 25° C.).

[2] = Oil solubility evaluation in KAK99; conditions: in KAK99 (isononyl isononanoate)
[3] = Water solubility evaluation; conditions: in water

Row | Viscosity [1] [mPa · s] | Oil solubility [2] | Molecule | Feeling of use [1] | Water solubility [3]
1 | 45 | Δ (Dissolved in KAK99 up to 5% by mass) | CCOCCOCCOC(=O)CC(O)C(=O)OCCOCCOCC (stereo not drawn) [Example 2, dicarbitol malate] |  | ◯ (Dissolved in water up to 10% by mass)
2 | 20 |  | CCOCCOCCOC(=O)CCCCC(=O)OCCOCCOCC [Example 3, dicarbitol adipate] | light | 
3 | 207 |  | CCOCCOCCOC(=O)C(O)C(O)C(=O)OCCOCCOCC (stereo not drawn) [Example 4, dicarbitol tartrate] |  | 
4 | 32.5 | Δ (Dissolved in KAK99 up to 5% by mass) | CCOCCOCCOCCOC(=O)CCC(=O)OCCOCCOCCOCC [Example 5, di(triethylene glycol monoethyl ether) succinate] |  | 
5 | 5 |  | dicarbitol isononanoate [compound 1, reference compound] | light | 

Row | Molecule | Viscosity [1] [mPa · s] | Oil solubility [2] | Feeling of use [1] | Water solubility [3]
6 | CCOCCOCCOC(=O)CCC(=O)OCCOCCOCC [Example 1, dicarbitol succinate] | 12.5 |  | light | 
7 | CCOCCOC(=O)CCC(=O)OCCOCC [Example 6, di(monoethylene glycol monoethyl ether) succinate] | 10.0 |  | light | Δ (Dissolved in water up to 5% by mass)
